{"source": "patent US20240066056A1", "about": "“Formulations of a Prophylactic Nasal Spray and Methods of Use and Manufacture Thereof” (priority 2020, published 2024)", "origin": "cited, not measured here", "key": {"SARS-CoV-2": {"system": "SARS-CoV-2", "details": "within 30 seconds of contact"}, "bacteria": {"system": "bacteria", "details": "after an application of povidone-iodine"}, "[1]": {"details": "cold and mild-warm water and alcohol"}}, "data": [{"substance": "Povidone-iodine [PVP-I]", "values": [{"measurement": "virus killed (in vitro virucidal activity)", "setting": "SARS-CoV-2", "result": 99.99, "unit": "%"}, {"measurement": "duration of bactericidal action after application", "setting": "bacteria", "result": "up to eight"}, {"measurement": "solubility", "setting": "[1]", "result": "soluble in cold and mild-warm water and alcohol"}]}]}
